In experiment [1] the test system is SARS-CoV-2 D614G strain. The class given is cell-based.
Experiment [2] relates to IAV WSN. The class given is cell-based, influenza A virus.

For `O=C(Nc1cc(C(F)(F)F)cc(C(F)(F)F)c1)Nc1cc(C(F)(F)F)cc(C(F)(F)F)c1` [DPUD-1, 1,3-bis(3,5-bis(trifluoromethyl)phenyl)urea], the “reduction of SARS-CoV-2 infection” value in experiment [1] is given as “greater than 99%”. Further, the “reduction in viral titre after tenth passage” value in experiment [2] is > 5 log.
As to `O=C(Nc1ccccc1)Nc1ccccc1` [DPU, 1,3-diphenylurea, reference compound], the “blocked SARS-CoV-2 infections” value in experiment [1] is listed as “did not show any inhibitory effect”.

Values taken from US20240116863A1, “DIPHENYL THIOUREA AND DIPHENYL UREA DERIVATIVES AS INHIBITORS OF ENDOCYTOSIS” (priority 2022, published 2024).
